According to paper PMC12799524, “Putative new biomarkers for renal transporter-mediated drug-drug interactions: Characterization as substrates of organic cation transporter 2, multidrug and toxin extrusion protein 1, and other important drug transporters” (Drug Metabolism and Disposition, 2025):
Like-named read-outs stand apart in the source and are kept apart here. Marks after values point to notes of the source that are not given here.

Experiments:
[1] = target: T1, human OCT2 (Homo sapiens, UniProt O15244); experiment: Intracellular accumulation and transcellular transport in MDCK-OCT2 monolayers; type: in vitro ADME; parameters: expressed in transfected cells; settings: for Intracellular concentration in MDCK-OCT2 cells in comparison to MDCK-VC cells: 10 μM basal, 60 minutes
T1 sequence (O15244 1-555): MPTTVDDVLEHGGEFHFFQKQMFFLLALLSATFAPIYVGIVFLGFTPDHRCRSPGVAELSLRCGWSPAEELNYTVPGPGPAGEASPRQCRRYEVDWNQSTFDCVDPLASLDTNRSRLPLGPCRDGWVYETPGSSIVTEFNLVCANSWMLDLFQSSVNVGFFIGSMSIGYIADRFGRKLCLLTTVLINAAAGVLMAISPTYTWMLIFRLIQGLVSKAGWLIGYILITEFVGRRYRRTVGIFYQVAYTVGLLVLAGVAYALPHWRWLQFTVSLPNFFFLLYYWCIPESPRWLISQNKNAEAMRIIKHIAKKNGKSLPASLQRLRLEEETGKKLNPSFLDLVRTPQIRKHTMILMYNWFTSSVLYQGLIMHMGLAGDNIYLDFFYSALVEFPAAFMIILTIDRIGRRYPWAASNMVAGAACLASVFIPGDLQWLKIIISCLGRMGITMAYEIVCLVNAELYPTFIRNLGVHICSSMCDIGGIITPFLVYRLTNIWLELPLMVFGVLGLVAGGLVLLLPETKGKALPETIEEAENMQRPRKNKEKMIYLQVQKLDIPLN
Description: The intracellular accumulation and transcellular, basal to apical transport experiments were performed as previously described in monolayers of polarized single-transfected (MDCK-OCT2, MDCK-MATE1) and double-transfected (MDCK-OCT2-MATE1) MDCK cells, MDCK control cells (MDCK-VC), or Caco-2 cells.[22] In brief, cell monolayers were grown in cell culture inserts on porous membranes. For MDCK-VC, MDCK-OCT2 and Caco-2, 5 × 10^5 cells were used per well; for MDCK-OCT2-MATE1, 6 × 10^5 cells were used, and for MDCK-MATE1, 8 × 10^5 cells were used per well. Cells were grown to confluence for 72 hours, induced with 10 mM sodium butyrate 48 hours after seeding for 24 hours (MDCK only), and subsequently used for transport experiments.
In general, after the cell culture medium was removed from both sides of the monolayers, cells were washed at 37 °C with transport buffer of the same composition as described in the previous section. Experiments were started by replacing the medium in the basal compartment with medium containing the putative biomarkers or [^3H]-labeled positive control substrates. The pH of the buffer on the basal side was 7.3 and 6.5 on the apical side for MDCK cells, whereas it was 7.3 on either side for Caco-2 cells. Cells were incubated at 37 °C and the buffer from the apical compartment was taken after 60 minutes for MDCK cells and after 240 minutes for Caco-2 cells. In case of Caco-2 cells, endogenous P-gp was inhibited by adding 2 μM of valspodar to the basal compartment. To measure the cellular accumulation of the test compounds, the remaining medium was removed at the end of the incubation period and the cell monolayers were rapidly rinsed 3 times with ice-cold 0.9% NaCl in water. Filters were detached from the chambers and placed into 500 μL of 80% MeOH containing the aforementioned recovery standards to lyse cells for subsequent LC-MS analysis or into 600 μL of 0.2% SDS (control experiments only). In the control experiments, the radioactivity of the collected apical medium and the solubilized cell monolayers and protein concentrations of the cell lysates were measured in the same way as described for the experiments with HEK cells.
(§1) The intracellular background of all 5 compounds in HEK cells at the beginning of the uptake experiments was investigated 48 hours after seeding without incubation with transport buffer (ie, 0 minutes). […] Then, cells were lysed with ice-cold 80% MeOH containing the aforementioned recovery standards. In addition, the impact of a 5-minute incubation period with transport buffer without added substance was investigated.

[2] = target: T1, human OCT2; experiment: Uptake assay in HEK-OCT2 vs HEK-VC cells; type: in vitro ADME; parameters: expressed in transfected cells; host or cells: HEK293 (HEK-OCT2); settings: for Uptake in HEK-OCT2 cells compared to HEK-VC cells (in words) / Effect of cimetidine on uptake in HEK-OCT2 cells: 10 and 100 μM substrate; for Effect of cimetidine on uptake in HEK-OCT2 cells: cimetidine 50 μM; for In Vitro OCT2 (substrate class): summary of in vitro uptake/transport results
Description: (§2) Transport experiments were performed 48 hours after seeding.
as §1

[3] = target: T2, human OATP1B1 (Homo sapiens, UniProt Q9Y6L6); experiment: Uptake assay in HEK-OATP1B1 vs HEK-VC cells; type: in vitro ADME
T2 construct: expressed in transfected cells; host or cells: HEK293 (HEK-OATP1B1)
T2 sequence (Q9Y6L6 1-691): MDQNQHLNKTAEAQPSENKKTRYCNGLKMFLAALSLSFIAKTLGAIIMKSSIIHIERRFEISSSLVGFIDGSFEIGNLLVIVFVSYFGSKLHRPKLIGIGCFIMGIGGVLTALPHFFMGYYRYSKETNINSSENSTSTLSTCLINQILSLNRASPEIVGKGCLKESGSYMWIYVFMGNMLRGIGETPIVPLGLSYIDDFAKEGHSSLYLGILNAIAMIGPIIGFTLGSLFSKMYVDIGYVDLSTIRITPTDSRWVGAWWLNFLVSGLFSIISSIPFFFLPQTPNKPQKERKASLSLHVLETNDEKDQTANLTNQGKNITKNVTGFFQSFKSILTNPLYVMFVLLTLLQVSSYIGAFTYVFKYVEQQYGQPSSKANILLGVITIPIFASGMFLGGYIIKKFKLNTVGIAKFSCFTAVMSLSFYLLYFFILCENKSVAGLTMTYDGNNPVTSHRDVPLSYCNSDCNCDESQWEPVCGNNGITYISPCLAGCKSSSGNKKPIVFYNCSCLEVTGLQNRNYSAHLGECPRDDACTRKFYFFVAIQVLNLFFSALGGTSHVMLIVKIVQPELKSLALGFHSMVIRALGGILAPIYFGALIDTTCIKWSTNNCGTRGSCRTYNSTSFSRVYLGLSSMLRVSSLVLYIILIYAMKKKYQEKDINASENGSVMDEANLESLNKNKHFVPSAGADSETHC
Description: as §2

[4] = parameters: method as in PMID 39148267; settings: humans, cited from earlier work; for In Vivo Change of Renal Excretion, Cimetidine: median log2-fold change after treatment with cimetidine; for In Vivo Change of Renal Excretion, Probenecid: median log2-fold change after treatment with probenecid; for In Vivo Change of Renal Excretion, Rifampin: median log2-fold change after treatment with rifampin; for In Vivo Change of Renal Excretion, Verapamil: median log2-fold change after treatment with verapamil
[5] = 10 μM substrate, 5 minutes, HEK-VC set to 100%
[6] = listed as 5-amino valeric acid betaine

Intracellular concentration in MDCK-OCT2 cells in comparison to MDCK-VC cells [1]	Uptake in HEK-OCT2 cells compared to HEK-VC cells [2, 5]	Uptake in HEK-OCT2 cells compared to HEK-VC cells (in words) ([2]; 5 minutes)	Effect of cimetidine on uptake in HEK-OCT2 cells ([2]; 5 minutes)	In Vitro OCT2 (substrate class) [2]	SMILES	In Vitro OATP1B1 (substrate class) [3]	In Vivo Change of Renal Excretion, Cimetidine [4]	In Vivo Change of Renal Excretion, Probenecid [4]	In Vivo Change of Renal Excretion, Rifampin [4]	In Vivo Change of Renal Excretion, Verapamil [4]	also measured
significantly increased	3245%	significantly higher	significantly reduced	++	NCCc1ccc(O)cc1 [Tyramine, tyramine]	0 (significant uptake in HEK cells, but less than 300% of respective control cells or significant reduction of transcellular transport in Caco-2 cells, but reduction not below 50% of respective control without valspodar)	–3.00 ^c log2-fold change	–0.82 log2-fold change	–0.11 log2-fold change	–0.22 log2-fold change	
					Cn1cnc(CCN)c1 [1-Methylhistamine, 1-methylhistamine]	-	–2.01 ^c log2-fold change	–0.25 log2-fold change	–0.07 log2-fold change	0.03 log2-fold change	
significantly increased	3960%	significantly higher	significantly reduced	++	NCCc1c[nH]c2ccc(O)cc12 [Serotonin, serotonin]	-	–2.89 ^c log2-fold change	0.06 log2-fold change	–0.06 log2-fold change	0.00 log2-fold change	Uptake ratio in HEK-OCT2 cells compared to HEK-VC cells ([2]; 100 μM substrate, 5 minutes, HEK-VC set to 100%): 6281%; Plasma concentrations, effect of cimetidine ([4]; cimetidine): did not sensitively change; Urine to plasma ratio, change by cimetidine ([4]; cimetidine): –1.94 log2-fold change; In Vivo Change of Renal Excretion, Cimetidine ([4]; listed as serotonin): –2.89 log2-fold change
significantly increased			significantly reduced	+	C[N+](C)(C)CCCCC(=O)[O-] [5-Amino valeric acid betaine, 5-amino valeric acid betaine]	0 (significant uptake in HEK cells, but less than 300% of respective control cells or significant reduction of transcellular transport in Caco-2 cells, but reduction not below 50% of respective control without valspodar)	–4.28 ^c log2-fold change	–0.56 ^c log2-fold change	–0.21 log2-fold change	–1.00 log2-fold change	Intracellular background in MDCK-OCT2 cells vs MDCK-VC cells ([1]; 60 minutes without added substance): much lower; Intracellular background in HEK-OCT2 cells compared to HEK-VC cells ([2]; 0 minutes, without added substance): lower; Intracellular concentration in HEK-OCT2 cells compared to HEK-VC cells (in words) ([2]; 10 μM substrate, 5 minutes): comparable; Intracellular concentration in HEK-OCT2 cells compared to HEK-VC cells (in words) ([2]; 100 μM substrate, 5 minutes): significantly higher; Intracellular background in HEK-OCT2 cells compared to HEK-VC cells ([2]; 5 minutes in transport buffer without added substance): lower; Renal elimination, change after cimetidine ([4]; cimetidine): –3.62 log2-fold change; In Vivo Change of Renal Excretion, Cimetidine [4, 6]: –4.28 log2-fold change; In Vivo Change of Renal Excretion, Probenecid [4, 6]: –1.00 log2-fold change
